Laboratory results published in ChEMBL document CHEMBL5131533, “Indazole and Benzoisoxazole Compounds as Dihydroorotate Dehydrogenase Inhibitors for Treating Acute Myelogenous Leukemia” (ACS Med Chem Lett, 2022).

Tests used:
[1] = molecular target: Dihydroorotate dehydrogenase (quinone), mitochondrial (Homo sapiens, UniProt Q02127); assay: Inhibition of human DHODH using dihydroorotate as substrate and Q6 as coenzyme by DCIP dye based spectrophotometry analysis
[2] = test system: MOLM-13; assay: Antiproliferative activity against human MOLM-13 cells incubated for 72 hrs by CellTiter-Glo based multilabel reader analysis; type: functional, cell-based; conditions: MOLM-13, 72 h

Chain of Dihydroorotate dehydrogenase (quinone), mitochondrial (Q02127 whole entry): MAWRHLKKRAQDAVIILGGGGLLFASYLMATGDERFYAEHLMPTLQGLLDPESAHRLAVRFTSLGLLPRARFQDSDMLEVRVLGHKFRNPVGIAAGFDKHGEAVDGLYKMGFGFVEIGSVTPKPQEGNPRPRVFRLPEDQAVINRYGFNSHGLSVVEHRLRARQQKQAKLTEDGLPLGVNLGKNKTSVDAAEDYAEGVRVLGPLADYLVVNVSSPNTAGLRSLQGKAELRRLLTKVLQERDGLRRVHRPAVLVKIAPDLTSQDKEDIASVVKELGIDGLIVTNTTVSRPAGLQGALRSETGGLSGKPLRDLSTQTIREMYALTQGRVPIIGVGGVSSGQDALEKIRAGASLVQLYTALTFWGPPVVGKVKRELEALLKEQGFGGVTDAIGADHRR

| IC50 [1] | IC50 [2] | Compound |
| --- | --- | --- |
| 2 nM | 5.7 nM | CCn1c(CO)nn(-c2cc(O[C@@H](C)C(F)(F)F)c3c(Nc4c(C)ccnc4Cl)nn(C)c3c2F)c1=O |
| 3 nM | 1.2 nM | CCn1c(CO)nn(-c2cc(OC(C)C(F)(F)F)c3c(Nc4c(F)cccc4Cl)nn(C)c3c2F)c1=O (configuration not stated) |
| 8 nM | 3 nM | CCn1c(CO)nn(-c2cc(OC(C)C(F)(F)F)c3c(Nc4c(F)cccc4Cl)nn(C)c3c2)c1=O (configuration not stated) |
| 1 nM | 0.1 nM | Cc1ccnc(Cl)c1Nc1nn(C)c2c(F)c(-c3cn(C)c(C(C)(C)O)n3)cc(O[C@@H](C)C(F)(F)F)c12 |
| 2 nM | 0.7 nM | CCn1c(CO)nn(-c2cc(O[C@@H](C)C(F)(F)F)c3c(Nc4c(F)cccc4Cl)nn(C)c3c2F)c1=O |
| 2 nM | 0.7 nM | CCn1c(CO)nn(-c2cc(O[C@@H](C)C(F)(F)F)c3c(Nc4c(F)cccc4Cl)noc3c2F)c1=O |
